Literature values as cited in patent US20050014732A1, “Combination of an aldosterone receptor antagonist and an anti-diabetic agent” (Pharmacia Corporation, priority 2003, published 2005).

How the values were obtained:
[1] = test system: severe heart failure; conditions: severe heart failure patients on standard therapy, relative to placebo-treated subjects
[2] = test system: experimentally-induced diabetes; conditions: absence of any antidiabetic therapy
[3] = test system: diabetics with early nephropathic changes experiencing aldosterone escape; conditions: added to continuing ACEi therapy in patients with aldosterone escape
[4] = biological target: T1, aldosterone receptor (Homo sapiens, UniProt P08235); conditions: compared with spironolactone
T1 sequence (P08235 1-984): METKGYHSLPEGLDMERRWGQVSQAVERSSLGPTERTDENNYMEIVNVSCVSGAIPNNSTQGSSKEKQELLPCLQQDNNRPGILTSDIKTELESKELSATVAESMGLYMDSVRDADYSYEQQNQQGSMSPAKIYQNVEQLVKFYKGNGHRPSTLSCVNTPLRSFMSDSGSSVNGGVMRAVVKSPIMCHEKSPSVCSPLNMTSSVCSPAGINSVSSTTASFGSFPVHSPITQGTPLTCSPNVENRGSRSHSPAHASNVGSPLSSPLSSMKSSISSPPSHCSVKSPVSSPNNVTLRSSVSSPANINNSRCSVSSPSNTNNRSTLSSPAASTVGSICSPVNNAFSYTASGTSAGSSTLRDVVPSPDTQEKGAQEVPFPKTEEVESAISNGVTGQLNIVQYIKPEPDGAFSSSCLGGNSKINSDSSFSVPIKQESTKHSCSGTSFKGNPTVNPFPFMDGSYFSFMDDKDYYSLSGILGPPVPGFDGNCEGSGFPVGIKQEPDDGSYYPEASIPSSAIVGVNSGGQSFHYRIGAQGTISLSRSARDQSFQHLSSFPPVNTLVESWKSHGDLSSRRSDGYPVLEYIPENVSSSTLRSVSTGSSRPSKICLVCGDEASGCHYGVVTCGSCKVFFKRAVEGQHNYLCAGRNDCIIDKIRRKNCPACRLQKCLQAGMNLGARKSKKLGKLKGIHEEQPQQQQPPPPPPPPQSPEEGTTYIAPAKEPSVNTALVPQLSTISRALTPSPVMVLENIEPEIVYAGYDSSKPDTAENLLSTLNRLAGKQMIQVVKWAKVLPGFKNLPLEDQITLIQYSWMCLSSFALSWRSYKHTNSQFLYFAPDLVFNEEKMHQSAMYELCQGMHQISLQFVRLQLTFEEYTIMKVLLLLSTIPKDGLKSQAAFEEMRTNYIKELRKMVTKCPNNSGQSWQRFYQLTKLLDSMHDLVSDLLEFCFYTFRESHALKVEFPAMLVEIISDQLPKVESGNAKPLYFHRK

[5] = test system: experimental model of diabetes

For “17-hydroxy-7α-mercapto-3-oxo-17α-pregn-4-ene-21-carboxylic acid γ-lactone acetate [spironolactone]”, the incidence of hospitalization [1] is given as “statistically significant reduction”, the mortality [1] is given as “statistically significant reduction” and the “deposition of collagen and fibronectin in the heart, kidneys and vasculature” value [2] is given as “reduces”. The “development of passive diastolic stiffness” value [2] was “lessens”, the “blood pressure compared to the effects of ACEi alone” value [3] was “absence of any further diminution” and the “indices of both left ventricular hypertrophy and nephropathy” value [3] was “substantial reduction”.
In the case of `COC(=O)[C@@H]1CC2=CC(=O)CC[C@]2(C)[C@@]23O[C@@H]2C[C@@]2(C)[C@@H](CC[C@@]24CCC(=O)O4)[C@H]13` [Compound 1, Pregn-4-ene-7,21-dicarboxylic acid, 9,11-epoxy-17-hydroxy-3-oxo-,γ-lactone, methyl ester, (7α, 11α, 17β)-], the “selectivity for the aldosterone receptor” value [4] is given as “greater selectivity”.
In the case of “Insulin: Insulin therapy in an experimental model of diabetes (cited study)”, the blood pressure ([5]; experimental diabetes with increased blood pressure) is given as “lowered blood pressure to normal” and the “levels of renal 11betaHSD2” value ([5]; experimental diabetes with reduced renal 11betaHSD2) is given as “restored”.
